For test [1], the target named is T1, Mitogen-activated protein kinase kinase kinase 3 (Homo sapiens) (UniProt Q99759).
T1 sequence (whole entry): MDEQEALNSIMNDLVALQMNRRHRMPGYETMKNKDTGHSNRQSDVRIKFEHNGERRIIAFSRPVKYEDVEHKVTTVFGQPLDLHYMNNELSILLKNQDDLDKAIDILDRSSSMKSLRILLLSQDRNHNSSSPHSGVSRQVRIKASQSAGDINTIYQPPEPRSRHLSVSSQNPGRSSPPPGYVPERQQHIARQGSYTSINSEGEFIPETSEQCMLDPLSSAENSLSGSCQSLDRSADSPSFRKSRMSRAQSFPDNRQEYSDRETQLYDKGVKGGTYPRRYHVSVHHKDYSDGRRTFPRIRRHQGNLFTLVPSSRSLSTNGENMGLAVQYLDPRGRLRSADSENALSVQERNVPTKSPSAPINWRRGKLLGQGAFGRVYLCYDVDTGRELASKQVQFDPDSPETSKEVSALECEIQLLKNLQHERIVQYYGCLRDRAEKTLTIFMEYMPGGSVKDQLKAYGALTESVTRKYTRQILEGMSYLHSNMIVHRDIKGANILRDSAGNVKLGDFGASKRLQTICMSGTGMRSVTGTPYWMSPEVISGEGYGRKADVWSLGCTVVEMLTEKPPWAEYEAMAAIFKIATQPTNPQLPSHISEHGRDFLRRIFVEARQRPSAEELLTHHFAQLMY
Put plainly: Selectivity interaction (LanthaScreen Eu Kinase Binding Assay) EUB0001632a MAP3K3. The note with it: at 10 µM. Background: Time-resolved FRET reads energy transfer from a long-lived donor to a nearby acceptor.

In test [2] the test system is T2, Receptor-type tyrosine-protein kinase FLT3 (Homo sapiens), P36888 [D835Y].
T2 sequence (whole entry): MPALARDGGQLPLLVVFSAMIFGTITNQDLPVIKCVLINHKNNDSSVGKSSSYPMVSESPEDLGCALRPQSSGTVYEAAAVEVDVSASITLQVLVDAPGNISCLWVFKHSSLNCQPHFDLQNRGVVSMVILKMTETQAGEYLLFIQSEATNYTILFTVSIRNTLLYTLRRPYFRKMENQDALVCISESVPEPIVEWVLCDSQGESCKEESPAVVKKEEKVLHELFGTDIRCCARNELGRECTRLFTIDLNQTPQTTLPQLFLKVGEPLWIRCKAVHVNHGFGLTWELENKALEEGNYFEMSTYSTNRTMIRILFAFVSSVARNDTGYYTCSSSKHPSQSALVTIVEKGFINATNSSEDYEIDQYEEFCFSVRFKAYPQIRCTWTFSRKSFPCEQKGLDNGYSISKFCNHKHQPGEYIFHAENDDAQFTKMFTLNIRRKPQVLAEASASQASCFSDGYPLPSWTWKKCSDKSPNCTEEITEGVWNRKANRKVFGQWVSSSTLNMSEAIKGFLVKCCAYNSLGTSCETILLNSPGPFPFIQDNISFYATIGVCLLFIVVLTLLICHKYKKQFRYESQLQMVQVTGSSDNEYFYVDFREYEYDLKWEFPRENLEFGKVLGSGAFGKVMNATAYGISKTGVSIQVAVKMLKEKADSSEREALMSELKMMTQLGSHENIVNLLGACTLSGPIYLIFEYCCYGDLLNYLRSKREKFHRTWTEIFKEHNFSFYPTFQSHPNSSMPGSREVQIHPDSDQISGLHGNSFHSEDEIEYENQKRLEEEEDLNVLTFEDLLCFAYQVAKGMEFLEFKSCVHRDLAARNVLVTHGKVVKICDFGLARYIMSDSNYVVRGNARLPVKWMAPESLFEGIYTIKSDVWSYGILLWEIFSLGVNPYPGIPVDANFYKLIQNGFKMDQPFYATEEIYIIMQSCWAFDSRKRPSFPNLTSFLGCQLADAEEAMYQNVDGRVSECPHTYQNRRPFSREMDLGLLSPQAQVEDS
The conditions noted are these: at 10 µM.

Test [3] concerns the target T1, Mitogen-activated protein kinase kinase kinase 3 (Homo sapiens). Put plainly: Selectivity interaction (KinomeScan (DiscoverX)) EUB0000655a MAP3K3. The note with it: at 10 µM.
In test [4] the target is Tyrosine-protein kinase FRK (Homo sapiens) (UniProt P42685). The test is described as follows: Selectivity interaction (KinomeScan (DiscoverX)) EUB0000655a FRK. The note with it: at 10 µM.
Tyrosine-protein kinase FRK (Homo sapiens), sequence (P42685 whole entry): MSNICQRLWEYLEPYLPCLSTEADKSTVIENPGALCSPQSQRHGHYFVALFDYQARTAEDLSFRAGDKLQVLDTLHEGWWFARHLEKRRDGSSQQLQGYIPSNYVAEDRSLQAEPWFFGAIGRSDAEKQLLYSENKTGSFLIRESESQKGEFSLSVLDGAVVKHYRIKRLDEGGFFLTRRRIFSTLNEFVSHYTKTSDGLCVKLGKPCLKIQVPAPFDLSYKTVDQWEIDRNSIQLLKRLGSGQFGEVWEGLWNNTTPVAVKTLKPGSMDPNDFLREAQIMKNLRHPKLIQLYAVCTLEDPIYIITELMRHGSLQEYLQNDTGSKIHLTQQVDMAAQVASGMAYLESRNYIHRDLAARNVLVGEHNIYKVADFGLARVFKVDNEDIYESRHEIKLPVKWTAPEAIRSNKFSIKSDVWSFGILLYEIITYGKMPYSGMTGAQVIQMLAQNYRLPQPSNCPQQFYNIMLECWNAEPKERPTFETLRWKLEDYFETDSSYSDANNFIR
Test [5] addresses Mitogen-activated protein kinase kinase kinase 20 (Homo sapiens) (UniProt Q9NYL2). The test is described as follows: Selectivity interaction (KinomeScan (DiscoverX)) EUB0001619a MAP3K20. The conditions noted are these: at 1 µM.
For test [6], the target named is T3, Ephrin type-A receptor 3 (Homo sapiens) (UniProt P29320).
T3 sequence (whole entry): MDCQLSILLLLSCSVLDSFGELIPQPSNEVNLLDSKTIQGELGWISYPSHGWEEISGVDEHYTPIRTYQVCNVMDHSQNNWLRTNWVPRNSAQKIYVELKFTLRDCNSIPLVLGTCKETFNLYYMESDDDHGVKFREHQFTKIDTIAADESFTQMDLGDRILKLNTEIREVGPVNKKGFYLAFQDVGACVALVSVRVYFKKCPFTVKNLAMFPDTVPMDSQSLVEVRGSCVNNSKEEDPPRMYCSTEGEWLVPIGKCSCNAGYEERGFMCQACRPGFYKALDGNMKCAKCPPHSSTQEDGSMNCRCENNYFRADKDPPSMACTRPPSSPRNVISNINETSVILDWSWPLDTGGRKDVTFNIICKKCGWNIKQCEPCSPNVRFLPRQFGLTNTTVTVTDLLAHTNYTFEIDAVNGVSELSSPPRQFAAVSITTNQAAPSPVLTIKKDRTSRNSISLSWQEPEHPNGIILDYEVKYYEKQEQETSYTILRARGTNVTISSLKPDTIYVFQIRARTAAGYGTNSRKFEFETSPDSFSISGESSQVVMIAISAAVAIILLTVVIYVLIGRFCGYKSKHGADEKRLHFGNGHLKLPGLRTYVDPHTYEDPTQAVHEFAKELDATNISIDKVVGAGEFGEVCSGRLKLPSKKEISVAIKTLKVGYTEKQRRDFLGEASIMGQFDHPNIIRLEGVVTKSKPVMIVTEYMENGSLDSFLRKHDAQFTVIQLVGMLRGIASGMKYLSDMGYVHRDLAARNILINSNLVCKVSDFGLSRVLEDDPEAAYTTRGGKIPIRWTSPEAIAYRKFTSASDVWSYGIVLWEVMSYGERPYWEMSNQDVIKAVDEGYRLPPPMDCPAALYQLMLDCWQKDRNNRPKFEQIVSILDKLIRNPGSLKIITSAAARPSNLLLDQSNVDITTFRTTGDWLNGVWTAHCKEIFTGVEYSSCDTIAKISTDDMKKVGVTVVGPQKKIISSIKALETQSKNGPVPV
Put plainly: Selectivity interaction (Kinase panel (Invitrogen)) EUB0000639a EPHA3. The note with it: at 200 nM.

The target of test [7] is Serine/threonine-protein kinase Chk2 (Homo sapiens) (UniProt O96017). The test is described as follows: Selectivity interaction (ActivX KiNativ screen (kinase selectivity in THP-1 cell lysates)) EUB0000639a CHEK2. The test is classed as subcellular. The note with it: lysate.
Serine/threonine-protein kinase Chk2 (Homo sapiens), sequence (O96017 whole entry): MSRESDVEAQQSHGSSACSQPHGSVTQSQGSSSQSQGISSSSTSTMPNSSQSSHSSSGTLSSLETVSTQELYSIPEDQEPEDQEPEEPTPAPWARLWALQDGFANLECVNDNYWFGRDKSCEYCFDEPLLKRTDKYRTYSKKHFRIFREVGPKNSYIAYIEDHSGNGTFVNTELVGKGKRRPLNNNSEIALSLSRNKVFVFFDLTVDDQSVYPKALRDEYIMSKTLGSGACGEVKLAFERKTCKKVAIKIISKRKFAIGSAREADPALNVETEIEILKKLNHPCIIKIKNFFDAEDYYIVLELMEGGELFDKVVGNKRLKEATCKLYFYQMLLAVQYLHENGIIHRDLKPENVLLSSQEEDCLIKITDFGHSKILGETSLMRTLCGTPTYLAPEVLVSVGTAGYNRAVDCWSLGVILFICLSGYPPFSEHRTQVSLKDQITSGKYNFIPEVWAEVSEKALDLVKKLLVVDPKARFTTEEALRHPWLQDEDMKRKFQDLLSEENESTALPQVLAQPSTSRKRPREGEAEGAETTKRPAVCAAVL
Test [8] concerns the target Tyrosine-protein kinase Fyn (Homo sapiens) (UniProt P06241). The note with it: at 10 µM.

Tyrosine-protein kinase Fyn (Homo sapiens), sequence (P06241 2-537 limits assumed): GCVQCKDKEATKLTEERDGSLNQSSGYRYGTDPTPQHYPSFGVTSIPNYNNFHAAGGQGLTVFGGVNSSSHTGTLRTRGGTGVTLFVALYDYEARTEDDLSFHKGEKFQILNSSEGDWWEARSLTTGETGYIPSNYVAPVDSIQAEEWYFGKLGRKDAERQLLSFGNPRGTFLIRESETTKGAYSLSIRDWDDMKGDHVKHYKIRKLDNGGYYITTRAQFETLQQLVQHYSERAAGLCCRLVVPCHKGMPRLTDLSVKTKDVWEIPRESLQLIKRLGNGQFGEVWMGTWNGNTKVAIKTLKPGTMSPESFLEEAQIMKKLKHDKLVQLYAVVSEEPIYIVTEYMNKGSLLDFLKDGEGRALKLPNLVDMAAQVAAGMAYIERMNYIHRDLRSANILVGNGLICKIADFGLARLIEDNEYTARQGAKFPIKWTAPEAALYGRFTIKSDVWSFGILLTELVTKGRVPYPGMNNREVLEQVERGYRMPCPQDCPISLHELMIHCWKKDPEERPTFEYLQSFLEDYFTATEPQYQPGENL
Mitogen-activated protein kinase kinase kinase 20 (Homo sapiens), sequence (Q9NYL2 2-800 limits assumed): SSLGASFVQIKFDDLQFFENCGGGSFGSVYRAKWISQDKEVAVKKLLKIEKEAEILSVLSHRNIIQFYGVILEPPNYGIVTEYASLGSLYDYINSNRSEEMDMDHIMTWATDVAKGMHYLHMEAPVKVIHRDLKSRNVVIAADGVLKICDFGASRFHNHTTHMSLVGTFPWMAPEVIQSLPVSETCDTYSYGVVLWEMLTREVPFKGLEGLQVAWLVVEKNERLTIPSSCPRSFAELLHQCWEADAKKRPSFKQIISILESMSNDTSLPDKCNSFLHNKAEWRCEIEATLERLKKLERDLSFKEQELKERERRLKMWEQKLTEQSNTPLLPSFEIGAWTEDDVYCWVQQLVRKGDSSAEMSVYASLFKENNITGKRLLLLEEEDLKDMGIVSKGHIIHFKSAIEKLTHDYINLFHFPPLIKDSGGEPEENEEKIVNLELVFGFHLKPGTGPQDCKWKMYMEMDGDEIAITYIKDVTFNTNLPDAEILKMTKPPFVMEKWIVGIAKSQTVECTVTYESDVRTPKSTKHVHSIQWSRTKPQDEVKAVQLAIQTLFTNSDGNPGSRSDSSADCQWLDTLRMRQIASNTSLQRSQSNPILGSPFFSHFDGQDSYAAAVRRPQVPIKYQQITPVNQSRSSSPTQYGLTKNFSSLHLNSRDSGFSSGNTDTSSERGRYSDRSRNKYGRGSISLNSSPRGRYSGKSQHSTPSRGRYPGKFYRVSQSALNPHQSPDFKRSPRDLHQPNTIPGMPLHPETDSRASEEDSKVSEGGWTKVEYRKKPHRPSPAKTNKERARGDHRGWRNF

In the case of `Cn1cc(-n2cnc3c(NCc4nc5cc(Cl)c(Cl)cc5[nH]4)nc(N4CCOCC4)nc32)cn1`, the % of inhibition in test [1] is -26.4%.
`Cc1cc([C@@H](C)Nc2ccccc2C(=O)O)c2nc(N3CCOCC3)cc(=O)n2c1` [AZD-6482] gave a % of control in test [2] of 54%.
As for `CN(C)CCOc1ccc(-c2nc(-c3ccncc3)c(-c3ccc4c(c3)CC/C4=N\O)[nH]2)cc1`, the % of control in test [3] turned out to be 76%; in test [4], 96%.
`N#Cc1cccc(-c2c[nH]c3ncnc(N4CCOCC4)c23)c1` showed a % of control in test [5] of 86%.
Take `CC[C@@H]1[C@H](F)C(=O)N[C@@H]1COc1nccc2cc(C(N)=O)c(OC)cc12` [ZIMLOVISERTIB]: the % of inhibition is 0.984% in test [6]; 4.5% in test [7] (at 0.01 µM); 8.5% in test [7] (at 0.04 µM); 3.8% in test [7] (at 0.2 µM); 30.1% in test [7] (at 1 µM); 58.9% in test [7] (at 5 µM).
In the case of `COCC(=O)NC/C=C/c1ccc2ncnc(Nc3ccc(Oc4ccc(C)nc4)c(C)c3)c2c1` [CP-724714], in test [8], the % of control was 100%.

The record behind these values is ChEMBL document CHEMBL5465560, “Selectivity Literature for EUbOPEN Chemogenomic Library” (2024).
